We go through three compounds from US20260240878A1, “PTP1B/TC-PTP DUAL INHIBITORS AND PROTEIN DEGRADERS” (Purdue Research Foundation, priority 2023, published 2026).

*1 amine or outer side, *2 acyl side, *3 side chain or, on linkers, in order; H or OH if unused. Where a SMILES comes first, the peptide text is derived from it. [ ]: non-standard residue; d: D form. The star is where a group is joined. NHBn(4-(4-Me-thiazol-5-yl)) = Cc1ncsc1-c1ccc(CN*)cc1; NHCH2(1,3-C6H4)CH2CO = O=C(Cc1cccc(CN[*:1])c1)[*:2]; F2Pmp = N[C@@H](Cc1ccc(C(F)(F)P(=O)(O)O)cc1)C(=O)O; Phenylacetyl(4-OH,3-OMe) = COc1cc(CC(=O)*)ccc1O; Benzoyl(3-Br,4-Me) = Cc1ccc(C(=O)*)cc1Br; X1 = Cc1ncsc1-c1ccc([C@H](C)N*)cc1; Hyp = O=C(O)[C@@H]1C[C@@H](O)CN1; Tle = CC(C)(C)[C@H](N)C(=O)O; PEG1 = NCCOCCC(=O)O

Test [1] deals with T1, TC-PTP (Homo sapiens, UniProt P17706).
T1 sequence (P17706 1-415): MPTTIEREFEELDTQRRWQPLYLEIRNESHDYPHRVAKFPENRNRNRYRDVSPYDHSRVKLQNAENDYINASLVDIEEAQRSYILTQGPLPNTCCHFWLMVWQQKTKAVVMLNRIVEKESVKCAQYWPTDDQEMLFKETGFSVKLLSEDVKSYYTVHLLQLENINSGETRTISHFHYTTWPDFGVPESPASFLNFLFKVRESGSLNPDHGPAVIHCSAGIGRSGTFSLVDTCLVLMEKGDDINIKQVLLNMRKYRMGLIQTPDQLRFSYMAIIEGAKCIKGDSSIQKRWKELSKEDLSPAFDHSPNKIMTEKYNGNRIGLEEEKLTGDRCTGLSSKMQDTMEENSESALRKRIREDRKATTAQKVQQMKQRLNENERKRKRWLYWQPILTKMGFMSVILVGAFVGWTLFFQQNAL
Kind of test: PTP activity assay with pNPP substrate (IC50, Ki, mode of inhibition). Type of test: biochemical. The following applies: pNPP 2 mM, pH 7.0, 25° C.; read-out: IC50, nM TC-PTP. As for the experimental part:
(§1) PTP activity was assayed using p-nitrophenyl phosphate (pNPP) as a substrate in DMG buffer (50 mM DMG. pH 7.0, 1 mM EDTA, 150 mM NaCl, 2 mM DTT, 0.1 mg/mL BSA) at 25° C. The assays were performed in 96-well plates. Normally, to determine the IC50 values, the reaction was initiated by the addition of enzyme (for PTP1B and TCPTP, the final concentration was 0.4 nM, for other PTPs, the final concentration was 10 nM) to a reaction mixture (0.2 mL) containing 2 mM (Km for the substrate) pNPP with various concentrations of inhibitors (see FIG. 1). The reaction rate was measured using a SpectraMax Plus 384 Microplate Spectrophotometer (Molecular Devices). Data were fitted using SigmaPlot Enzyme Kinetics Module (Systat Software, Inc.). To determine the mode of inhibition, the reactions were initiated by the addition of enzyme (final concentration for TC-PTP and PTP1B was 0.4 nM) to the reaction mixtures (0.2 mL) containing various concentrations of pNPP with different concentrations of the inhibitor. Data were fitted using SigmaPlot Enzyme Kinetics Module (Systat Software. Inc.).

The target in test [2] is T2, PTP1B (Homo sapiens, UniProt P18031).
T2 sequence (P18031 1-435): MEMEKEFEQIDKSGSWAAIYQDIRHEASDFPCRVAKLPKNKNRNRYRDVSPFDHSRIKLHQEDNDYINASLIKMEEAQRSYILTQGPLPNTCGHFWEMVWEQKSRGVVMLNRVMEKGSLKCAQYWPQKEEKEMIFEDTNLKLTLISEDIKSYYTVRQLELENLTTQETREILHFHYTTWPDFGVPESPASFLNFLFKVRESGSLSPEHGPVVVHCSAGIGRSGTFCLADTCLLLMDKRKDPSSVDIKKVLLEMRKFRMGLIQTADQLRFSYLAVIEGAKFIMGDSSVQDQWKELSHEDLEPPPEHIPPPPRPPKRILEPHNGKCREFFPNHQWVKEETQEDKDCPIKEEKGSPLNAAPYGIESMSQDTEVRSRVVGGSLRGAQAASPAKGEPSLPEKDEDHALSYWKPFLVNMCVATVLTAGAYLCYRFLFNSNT
The test is described as above. Type of test: biochemical. As to conditions: pNPP 2 mM, pH 7.0, 25° C.; read-out: IC50, nM PTP1B. As for the experimental part: as §1

Test [3] has as its target T1, TC-PTP. Kind of test: Degradation assay in HEK293 cells (immunoblotting). It counts as cell-based. Further details: endogenous in cells; host or cells: HEK293. The following applies: 0.2 μM degrader, 16 hours, read-out: % Protein Degradation TC-PTP. On the procedure:
(§2) HEK293. MIAPaCa-2, HepG2, U2OS, H116, MEF, B16F10, and MC38 cells, were grown in DMEM, while Jurkat and H358 cells were grown in RPMI 1640 supplemented with 10% fetal bovine serum, penicillin (50 units/mL), and streptomycin (50 μg/mL) in a 37° C. incubator containing 5% CO2. 20 ng/ml human (Biolegend #713906) or mouse (Biolegend #714006) Interferon-γ were used for JAK/STAT pathway stimulation.
(§3) Tissues or cultured cells were lysed with ice-cold lysis buffer (50 mM Tris (pH 8.0, 150 mM NaCl, 10% Glycerol, 1% Triton-X-100) supplied with phosphatase inhibitor (Bimake) and protease inhibitor mixture (Roche Applied Science). Equal amounts of protein were resolved by SDS-PAGE, transferred to nitrocellulose membrane, and subjected to immunoblotting. Antibodies used in this study include anti-following proteins: pSTAT1^Tyr701 (Cell Signaling Technology #9167, 1:3000), GAPDH (Cell Signaling Technology #97166, 1:5000), pJAK1^Tyr1034/1035 (Cell Signaling Technology #74129, 1:1000), pJAK2^Tyr1007/1008 (Cell Signaling Technology #3776, 1:1000), TC-PTP (Abcam #ab180764, 1:3000). PTP1B (Abcam #ab244207, 1:1500).
(§4) Degradation assay was conducted in HEK293 cells with 1 μM degrader and 24 hours incubation.
(§5) The degradation assay was conducted in HEK293 cells with 0.2 μM degrader and 16 hours incubation.
A general note: In western blotting, separated proteins are transferred to a membrane and probed.

The target of test [4] is T2, PTP1B. The test can be described thus: Degradation assay in HEK293 cells (immunoblotting). Type of test: cell-based. Details: endogenous in cells; host or cells: HEK293. The following applies: 0.2 μM degrader, 16 hours. On the procedure:
as §2, §3, §4, §5

Broadly, the IC50 is the concentration at which inhibition is half-maximal. Turning to `COc1cc(CC(=O)N[C@@H](Cc2ccccc2)C(=O)N[C@@H](Cc2ccc(C(F)(F)P(=O)(O)O)cc2)C(=O)N[C@@H](CCCCNC(=O)c2ccc(C)c(Br)c2)C(=O)NCCOCCC(=O)N[C@H](C(=O)N2C[C@H](O)C[C@H]2C(=O)N[C@@H](C)c2ccc(-c3scnc3C)cc2)C(C)(C)C)ccc1O` [Compound 27, ((4-((2S,5S,15S)-5-(4-(3-bromo-4-methylbenzamido)butyl)-15-((2S,4R)-4-hydroxy-2-(((S)-1-(4-(4-methylthiazol-5-yl)phenyl)ethyl)carbamoyl)pyrrolidine-1-carbonyl)-2-((S)-2-(2-(4-hydroxy-3-methoxyphenyl)acetamido)-3-phenylpropanamido)-16,16-dimethyl-3,6,13-trioxo-10-oxa-4,7,14-triazaheptadecyl)phenyl)difluoromethyl)phosphonic Acid] ({Phenylacetyl(4-OH,3-OMe)}-F[F2Pmp]K(Benzoyl(3-Br,4-Me))[PEG1][Tle][Hyp]-X1), the IC50 amounted to 6.7 ± 2 nM at TC-PTP [1] and 15.5 ± 2.1 nM on PTP1B [2]. Moreover, the percent TC-PTP degradation at 0.2 µM at TC-PTP [3] came to 63%. For the same compound, on PTP1B [4], the “% Protein Degradation PTP1B” value came to 75%.
For the compound `COc1cc(CC(=O)N[C@@H](Cc2ccccc2)C(=O)N[C@@H](Cc2ccc(C(F)(F)P(=O)(O)O)cc2)C(=O)N[C@@H](CCCCNC(=O)c2ccc(C)c(Br)c2)C(=O)NCCOCCC(=O)N[C@H](C(=O)N2C[C@H](O)C[C@H]2C(=O)NCc2ccc(-c3scnc3C)cc2)C(C)(C)C)ccc1O` [Compound 28, ((4-((2S,5S,15S)-5-(4-(3-bromo-4-methylbenzamido)butyl)-15-((2S,4R)-4-hydroxy-2-((4-(4-methylthiazol-5-yl)benzyl)carbamoyl)pyrrolidine-1-carbonyl)-2-((S)-2-(2-(4-hydroxy-3-methoxyphenyl)acetamido)-3-phenylpropanamido)-16,16-dimethyl-3,6,13-trioxo-10-oxa-4,7,14-triazaheptadecyl)phenyl)difluoromethyl)phosphonic Acid] ({Phenylacetyl(4-OH,3-OMe)}-F[F2Pmp]K(Benzoyl(3-Br,4-Me))[PEG1][Tle][Hyp]-{NHBn(4-(4-Me-thiazol-5-yl))}), the IC50 on TC-PTP [1] was determined as 11.2 ± 1.3 nM; at PTP1B [2], 15.4 ± 3.3 nM. Besides, the percent TC-PTP degradation at 0.2 µM on TC-PTP [3] came to 47%. The “% Protein Degradation PTP1B” value on PTP1B [4] turned out to be 45%.
For `COc1cc(CC(=O)N[C@@H](Cc2ccccc2)C(=O)N[C@@H](Cc2ccc(C(F)(F)P(=O)(O)O)cc2)C(=O)N[C@@H](CCCCNC(=O)c2ccc(C)c(Br)c2)C(=O)NCc2cccc(CC(=O)N[C@H](C(=O)N3C[C@H](O)C[C@H]3C(=O)NCc3ccc(-c4scnc4C)cc3)C(C)(C)C)c2)ccc1O` [Compound 48, ((4-((S)-3-(((S)-6-(3-bromo-4-methylbenzamido)-1-((3-(2-(((S)-1-((2S,4R)-4-hydroxy-2-((4-(4-methylthiazol-5-yl)benzyl)carbamoyl)pyrrolidin-1-yl)-3,3-dimethyl-1-oxobutan-2-yl)amino)-2-oxoethyl)benzyl)amino)-1-oxohexan-2-yl)amino)-2-((S)-2-(2-(4-hydroxy-3-methoxyphenyl)acetamido)-3-phenylpropanamido)-3-oxopropyl)phenyl)difluoromethyl)phosphonic Acid] ({Phenylacetyl(4-OH,3-OMe)}-F[F2Pmp]K(Benzoyl(3-Br,4-Me))[NHCH2(1,3-C6H4)CH2CO][Tle][Hyp]-{NHBn(4-(4-Me-thiazol-5-yl))}), in that order: 11.5 ± 0.6 nM, 16.7 ± 3.3 nM, 70% and 75%.
